Experimental data published in patent US20250316381A1, “Assessment of Relative Quantitative Effect of Somatic Point Mutations at the Individual Tumor Level for Prioritization” (Hadasit Medical Research Services and Development Ltd., priority 2022, published 2025).

Columns and labels:
[1] = tested on: human cancer cell lines; assay: GDSC2 IC50 drug screening of cancer cell lines, divided by cancer gene TVA sub-groups; assay type: cell-based; conditions: except for two cell lines in "Strong Drivers" group
Source text: Bulk data of “IC50s Drug Screening” was obtained from Genomics of Drug Sensitivity in Cancer website. Bulk mutation data for cell lines was obtained from Cell Model Passports website.
The analysis was focused on pairs of drugs and genetic alterations that met the following criteria in GDSC's database: (i) drug response associated with a cancer gene variant (ii) at least 50 cell lines harboring the cancer gene alteration (iii) effect size above 0.7 (above 0.5 indicates a moderate effect size and above 1 indicates a large effect size) (iv) drug-gene association is statistically significant (false discovery rate (FDR) p-value<0.1) and (v) the drug effect on the mutated protein of associated pathways can explain the association.
For comparison of response to drugs between genes variants' TVA values, samples were binned according to their gene variant TVA score and according to appearance in the drivers' binomial catalogue. Non-drivers were defined as variants absent from the binomial catalogue with TVA≤1.5. This larger TVA value for variants not in the catalog enlarges the number of variants in the non-driver group. […]
Rare pathogenic variants are becoming important in the inter-individual variability in drug response. […] Genomic features and drug response associations were analyzed from GDCS's analysis of variance model that met certain criteria (see Materials and Methods). […]

[2] = tested on: human cancer cell lines; conditions: GDSC2; BRAF variants, "Very Strong Drivers" group (includes V600E class I variant) versus all other groups; cited from earlier work

SMILES: CC(C)(C)c1nc(-c2cccc(NS(=O)(=O)c3c(F)cccc3F)c2F)c(-c2ccnc(N)n2)s1 [Dabrafenib]
- association of TVA's sub-groups of BRAF variants with drug response [1]: associated with drug response

SMILES: CCCS(=O)(=O)Nc1ccc(F)c(C(=O)c2c[nH]c3ncc(Cl)cc23)c1F [PLX4720]
- IC50 of cancer cell lines [2]: distinct low IC50
